# Assays:
# Format in all cases: in vivo, human
# [1] = system: EDS severity in subjects with PWS; test: Phase 2 study: Caregiver Global Impression of Severity (CaGI-S) for EDS; details: Week 11
# Method: (§1) A study was carried out to evaluate the efficacy and safety of pitolisant for the treatment of EDS in subjects with PWS. This was a phase 2, randomized, placebo-controlled, proof-of-concept study. Children (aged 6 to <12 years), adolescents (aged 12 to <18 years), and adults (aged 18-65 years) with a confirmed diagnosis of PWS were randomly assigned to receive low-dose pitolisant (8.9 mg in children, 13.35 mg in adolescents, and 17.8 mg in adults) or high dose pitolisant (17.8 mg in children, 26.7 mg in adolescents, and 35.6 mg in adults), or placebo (see FIG. 1). All doses are expressed in terms of pitolisant freebase.
# (§2) The 11-week double-blind treatment period consisted of a 3-week titration phase and an 8-week stable-dose phase.
# (§3) Secondary/exploratory endpoints included change from baseline in Caregiver Global Impression of Severity (CaGI-S) for EDS, behavioral disturbance (Aberrant Behavior Checklist-2 [ABC-2]), and hyperphagia (Hyperphagia Questionnaire for Clinical Trials [HQ-CT] in conjunction with the Food Safe Zone Questionnaire [FSZQ]). The primary time frame of interest was from baseline to Week 11.
# patients with PWS = test: Phase 2 study: treatment-emergent adverse events; details: for Treatment-related TEAEs: possibly, probably, or definitely related to study drug
# Method: as §1, §2
# [2] = system: excessive daytime sleepiness (EDS) in subjects with PWS; test: Phase 2 randomized placebo-controlled study: ESS-CHAD (parent/caregiver version)
# Method: as §1, §2
# The primary efficacy endpoint was the change from baseline to Week 11 in total score for the parent/caregiver version of the Epworth Sleepiness Scale for Children and Adolescents (ESS-CHAD), which is a validated measurement for sleep propensity. (See Janssen K C, et al. Sleep Med. 2017; 33:30-35; see also Patel V P, et al. J. Clin. Sleep Med. 2022; 18 (2): 485-496). A separate analysis was treatment response defined as ESS-CHAD score reduction of ≥3 points from baseline or Week 11 score of ≤10.
# [3] = system: hyperphagia in subjects with PWS; test: Phase 2 study: Hyperphagia Questionnaire for Clinical Trials (HQ-CT); details: Week 11; children (6 to <12 years) and adults (18 to 65 years)
# Method: as §1, §2, §3
# [4] = system: behavioral problems in subjects with PWS; test: Phase 2 study: Aberrant Behavior Checklist-2 (ABC-2)
# Method: as §1, §2, §3
# The ABC-2 is a widely used and validated questionnaire that can assess changes in behavioral problems, and is particularly suitable for assessing behavioral changes in subjects with intellectual and developmental disabilities. The ABC-2 questions are subdivided into five domains (irritability, social withdrawal, hyperactivity/noncompliance, inappropriate speech, and stereotypic behavior). Generally, a reduction of 2 or more points in a domain of the ABC-2 is considered clinically meaningful. ABC-2 was used in this trial to determine if pitolisant improved or reduced behavioral problems experienced by subjects living with PWS.
# [5] = pitolisant-treated patients (doses pooled)
# [6] = adolescents (12 to <18 years), higher-dose, n = 6
# [7] = adolescents (12 to <18 years), lower-dose, n = 4
# [8] = adults (18 to 65 years), higher-dose, n = 5
# [9] = adults (18 to 65 years), lower-dose, n = 3
# [10] = all patient groups, high dose pitolisant, n = 22
# [11] = all patient groups, low dose pitolisant, n = 18
compound,measurement,setting,value
Clc1ccc(CCCOCCCN2CCCCC2)cc1 [pitolisant],reduction in CaGI-S score versus placebo,[1]; children (6 to <12 years) and adults,greater for pitolisant compared with placebo
same,CaGI-S mean (SD) change,[1]; higher-dose pitolisant group,−1.1 (1.1)
same,CaGI-S mean (SD) change,[1]; lower-dose pitolisant group,−1.0 (1.2)
same,Anxiety,"patients with PWS; high-dose pitolisant, n = 22",1 (4.5) n (%)
same,Any TEAE,"patients with PWS; high-dose pitolisant, n = 22",11 (50.0) n (%)
same,Irritability,"patients with PWS; high-dose pitolisant, n = 22",2 (9.1) n (%)
same,Most common TEAEs,"patients with PWS; high-dose pitolisant, n = 22",1 (4.5) n (%)
same,Serious TEAEs,"patients with PWS; high-dose pitolisant, n = 22",0 n (%)
same,Severe TEAEs,"patients with PWS; high-dose pitolisant, n = 22",0 n (%)
same,Treatment-related TEAEs,"patients with PWS; high-dose pitolisant, n = 22",4 (18.2) n (%)
same,Anxiety,"patients with PWS; low-dose pitolisant, n = 20",4 (20.0) n (%)
same,Any TEAE,"patients with PWS; low-dose pitolisant, n = 20",13 (65.0) n (%)
same,Irritability,"patients with PWS; low-dose pitolisant, n = 20",3 (15.0) n (%)
same,Most common TEAEs,"patients with PWS; low-dose pitolisant, n = 20",4 (20.0) n (%)
same,Serious TEAEs,"patients with PWS; low-dose pitolisant, n = 20",0 n (%)
same,Severe TEAEs,"patients with PWS; low-dose pitolisant, n = 20",0 n (%)
same,Treatment-related TEAEs,"patients with PWS; low-dose pitolisant, n = 20",7 (35.0) n (%)
same,safety and tolerability versus known safety profile,patients with PWS; patients with PWS,no new safety signals were observed
same,"adverse event anxiety, incidence",patients with PWS; [5],13.0%
same,"adverse event irritability, incidence",patients with PWS; [5],17.4%
same,ESS-CHAD (Parent/Caregiver Version) mean change from baseline at Week 11,"[2]; 6 to <12 years, high-dose pitolisant (17.8 mg), n = 11",−5.5 points
same,ESS-CHAD (Parent/Caregiver Version) mean change from baseline at Week 11,"[2]; 6 to <12 years, low-dose pitolisant (8.9 mg), n = 12",−3.7 points
same,ESS-CHAD (Parent/Caregiver Version) mean change from baseline at Week 11,"[2]; 12 to <18 years, high-dose pitolisant (26.7 mg), n = 6",−4.2 points
same,ESS-CHAD (Parent/Caregiver Version) mean change from baseline at Week 11,"[2]; 12 to <18 years, low-dose pitolisant (13.35 mg), n = 4",−4.5 points
same,ESS-CHAD (Parent/Caregiver Version) mean change from baseline at Week 11,"[2]; 18 to 65 years, high-dose pitolisant (35.6 mg), n = 5",−4.4 points
same,ESS-CHAD (Parent/Caregiver Version) mean change from baseline at Week 11,"[2]; 18 to 65 years, low-dose pitolisant (17.8 mg), n = 3",−5.0 points
same,mean improvement from baseline in ESS-CHAD score versus placebo,"[2]; overall patient population, end of treatment, both dose groups",greater for both pitolisant dose groups compared with the placebo group
same,ESS-CHAD response rate (score reduction of ≥3 points from baseline or score of ≤10 at Week 11) versus placebo,"[2]; study completers, Week 11, driven primarily by high-dose group",higher for pitolisant versus placebo
same,reduction in HQ-CT score versus placebo,[3],greater for pitolisant compared with placebo
same,mean reduction on all ABC-2 domains versus placebo,"[4]; Week 11, children (6 to <12 years), higher-dose pitolisant",greater for higher-dose pitolisant compared with placebo
same,ABC-2 Hyperactivity/noncompliance mean change from baseline to Week 11,[4]; [6],−3.8
same,ABC-2 Inappropriate speech mean change from baseline to Week 11,[4]; [6],−1.7
same,ABC-2 Irritability mean change from baseline to Week 11,[4]; [6],−5.0
same,ABC-2 Social withdrawal mean change from baseline to Week 11,[4]; [6],−3.7
same,ABC-2 Stereotypic behavior mean change from baseline to Week 11,[4]; [6],−0.5
same,ABC-2 Hyperactivity/noncompliance mean change from baseline to Week 11,[4]; [7],0.0
same,ABC-2 Inappropriate speech mean change from baseline to Week 11,[4]; [7],−0.8
same,ABC-2 Irritability mean change from baseline to Week 11,[4]; [7],−4.8
same,ABC-2 Social withdrawal mean change from baseline to Week 11,[4]; [7],−3.3
same,ABC-2 Stereotypic behavior mean change from baseline to Week 11,[4]; [7],0.3
same,ABC-2 Hyperactivity/noncompliance mean change from baseline to Week 11,[4]; [8],−5.4
same,ABC-2 Inappropriate speech mean change from baseline to Week 11,[4]; [8],−2.2
same,ABC-2 Irritability mean change from baseline to Week 11,[4]; [8],−2.8
same,ABC-2 Social withdrawal mean change from baseline to Week 11,[4]; [8],−2.4
same,ABC-2 Stereotypic behavior mean change from baseline to Week 11,[4]; [8],−2.6
same,ABC-2 Hyperactivity/noncompliance mean change from baseline to Week 11,[4]; [9],1.0
same,ABC-2 Inappropriate speech mean change from baseline to Week 11,[4]; [9],0.7
same,ABC-2 Irritability mean change from baseline to Week 11,[4]; [9],−3.0
same,ABC-2 Social withdrawal mean change from baseline to Week 11,[4]; [9],−1.0
same,ABC-2 Stereotypic behavior mean change from baseline to Week 11,[4]; [9],−0.3
same,ABC-2 Hyperactivity/noncompliance mean change from baseline to Week 11,[4]; [10],−4.6
same,ABC-2 Inappropriate speech mean change from baseline to Week 11,[4]; [10],−2.0
same,ABC-2 Irritability mean change from baseline to Week 11,[4]; [10],−4.8
same,ABC-2 Social withdrawal mean change from baseline to Week 11,[4]; [10],−4.0
same,ABC-2 Stereotypic behavior mean change from baseline to Week 11,[4]; [10],−1.2
same,ABC-2 Hyperactivity/noncompliance mean change from baseline to Week 11,[4]; [11],−0.4
same,ABC-2 Inappropriate speech mean change from baseline to Week 11,[4]; [11],−0.3
same,ABC-2 Irritability mean change from baseline to Week 11,[4]; [11],−3.4
same,ABC-2 Social withdrawal mean change from baseline to Week 11,[4]; [11],−1.9
same,ABC-2 Stereotypic behavior mean change from baseline to Week 11,[4]; [11],−0.1
same,reductions in three ABC-2 domains including irritability and hyperactivity/noncompliance,[4]; high dose group,more than 4 points
